Test results: patent US7790885B2, “Process for preparing phenoxypyridine derivatives” (Eisai R&D Management Co., Ltd., priority 2006, dated 2010)
pIC50: −log10 of the molar value.

How the values were obtained:
[1] = test system: Human gastric cancer cells (MKN-45); test: Inhibitory activity against the proliferation of human gastric cancer cells (MKN-45); assay type: cell-based; conditions: 72 h, read-out: IC50 (concentration necessary to inhibit the cell proliferation by 50%), MKN-45 cells, 1% FBS-containing RPMI1640, 3 days, Cell Counting Kit-8
Method: Human gastric cancer cells (MKN-45) were suspended in a 1% FBS-containing RPMI1640 medium (purchased from Sigma). The cell suspension (1×10^4 cells/ml) was added in a 96-well plate for cell culture (purchased from NUNC, Production No. 167008) at 0.1 ml/well, and then cultured in a 5% CO2 incubator (37° C.) overnight. After the culture, each well was supplied with 0.1 ml of a test substance diluted with a 1% FBS-containing RPMI1640 medium, followed by culturing in a 5% CO2 incubator (37° C.) for 3 days. After the culture, each well was supplied with 10 μl of Cell Counting Kit-8 (purchased from DOJINDO, Production No. 343-07623), followed by incubation in a 5% CO2 incubator (37° C.) for about 1.5 hrs. After the incubation, using the Plate Reader MTP-500 (Corona Electric), the absorbance of each well was determined at a measurement wavelength of 450 nm and a reference wavelength of 660 nm.

HGFR [2] = target: T1, HGFR (Homo sapiens, UniProt P08581); test: Inhibitory activity against HGFR tyrosine kinase activity (HTRF); assay type: biochemical; set-up: His6-HGFR, the HGFR cytoplasmic domain fused with six histidine at the N terminus; made in house; host or cells: Sf9 insect cells (baculovirus, pFastBac-HT); conditions: His6-HGFR cytoplasmic domain, biotin-poly(GT) substrate, ATP, 30° C. for 10 min
Excerpt: The DNA fragment was isolated from the human placental cDNA library (purchased from Clontech) by PCR (TaKaRa Ex Taq™ Kit, purchased from TaKaRa) using two kinds of primers (SEQ ID NO: 1,5′-[…]-3′ and SEQ ID NO: 2,5′-[…]-3′, purchased from Invitrogen). The DNA fragment was cloned into a baculovirus transplace vector (pFastBac™-HT (purchased from GIBCO BRL)) to produce a recombinant construct. […] EGFR was purchased from Sigma (Production No. E-2645).
To the suspension of Sf9 cells (3×10^8 cells) in SF-900II medium (purchased from Invitrogen) containing 2% FBS was added a solution of HGFR transfected baculovirus above (4 ml), followed by a shaking culture at 27° C. for 48 hrs. The cells infected with the HGFR transfected baculovirus were centrifuged at 1,000 rpm, 4° C. for 5 min to remove the supernatant. The precipitated infected cells were suspended in 80 ml of ice-cold PBS, and centrifuged at 1,000 rpm, 4° C. for 5 min to remove the supernatant. The precipitated infected cells were suspended in 40 ml of ice-cold Lysis Buffer (50 mM Tris-HCl (pH 8.5), 5 mM 2-mercaptoethanol, 100 mM KCl, 1 mM PMSF and 1% (v/v) NP-40). The suspension was centrifuged at 12,000 rpm, 4° C. for 30 min to provide a supernatant.
The supernatant was loaded onto an Ni-NTA agarose column (3 ml, purchased from Qiagen) equilibrated with 30 ml of Buffer A (20 mM Tris-HCl (pH 8.5), 5 mM 2-mercaptoethanol, 500 mM KCl, 20 mM imidazole and 10% (v/v) glycerol). The column was washed with 30 ml of Buffer A, 6 ml of Buffer B (20 mM Tris-HCl (pH 8.5), 5 mM 2-mercaptoethanol, 1 M KCl, and 10% (v/v) glycerol) and 6 ml of Buffer A in this order. Then, the column was eluted with 6 ml of Buffer C (20 mM Tris-HCl (pH 8.5), 5 mM 2-mercaptoethanol, 100 mM KCl, 100 mM imidazole, and 10% (v/v) glycerol) to provide a fraction. The fraction was entrapped in a dialysis membrane (purchased from Spectrum Laboratories), dialyzed at 4° C. overnight with 1 L of dialysis buffer (20 mM Tris-HCl (pH 7.5), 10% (v/v) glycerol, 1 mM dithiothreitol, 0.1 mM Na3VO4 and 0.1 mM EGTA), and stored at −80° C. until used. […] The VEGFR2 cytoplasmic domain, the FGFR1 cytoplasmic domain, and the PDGFRβ cytoplasmic domain were fused with six histidine at the N terminus by the similar method to produce respective recombinant proteins (His6-VEGFR2, His6-FGFR1, and His6-PDGFRβ).
The tyrosine-phosphorylated biotin-poly(GT) was detected using the Homogenous Time-Resolved Fluorescence (HTRF) method (Analytical Biochemistry, 269, 94-104, 1999).
Target sequence in this assay (P08581 956-1390 limits assumed): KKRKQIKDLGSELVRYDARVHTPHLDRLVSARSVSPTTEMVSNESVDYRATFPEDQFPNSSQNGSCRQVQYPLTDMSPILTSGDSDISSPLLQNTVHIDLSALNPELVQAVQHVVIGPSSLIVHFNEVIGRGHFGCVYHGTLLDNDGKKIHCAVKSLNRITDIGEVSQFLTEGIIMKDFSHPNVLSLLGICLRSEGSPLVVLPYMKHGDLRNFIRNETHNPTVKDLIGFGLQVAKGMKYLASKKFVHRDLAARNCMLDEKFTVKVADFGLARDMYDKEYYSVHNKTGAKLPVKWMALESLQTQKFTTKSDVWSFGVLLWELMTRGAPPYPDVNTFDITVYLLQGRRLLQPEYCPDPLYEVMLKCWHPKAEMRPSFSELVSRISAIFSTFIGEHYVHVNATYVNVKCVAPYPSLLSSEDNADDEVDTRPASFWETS

HGFR [3] = target: T1, HGFR; test: Inhibitory activity against the HGFR autophosphorylation using ELISA; assay type: cell-based; set-up: endogenous in cells; host or cells: MKN-45 human gastric cancer cells; conditions: MKN-45 cells, test substance 1 hr, cell extract
Method: Human gastric cancer cells (MKN-45) were suspended in a 1% FBS-containing RPMI1640 medium (purchased from Sigma). […] After the culture, from each well was removed the supernatant, followed by adding 0.05 ml of a 1% FBS-containing RPMI1640 medium. Then, the well was supplied with 0.05 ml of the test substance dissolved in dimethyl sulfoxide (diluted with a 1% FBS-containing RPMI1640 medium), followed by culturing in a 5% CO2 incubator (37° C.) for 1 hr. From each well was removed the supernatant, and each well was washed with 150 μl of PBS, followed by adding 100 μl of a lysis buffer (50 mM Hepes (pH 7.4), 150 mM NaCl, 10% (v/v) glycerol, 1% Triton X-100, 1.5 mM MgCl2, 1 mM EDTA (pH 8.0), 100 mM NaF, 1 mM PMSF, 10 μg/ml Aprotinin, 50 μg/ml Leupeptin, 1 μg/ml Pepstatin A and 1 mM Na3VO4). The plate was shaken at 4° C. for 1 hr to prepare the cell extract.
To a 96-well plate for ELISA (purchased from COSTAR, Production No. 3369) was added 50 μl of 60 mM bicarbonate buffer (pH 9.6) containing 50 μg/ml of an anti-phosphotyrosine antibody (PY20, purchased from Transduction Laboratory, Production No. P-11120). The plate was incubated at 4° C. overnight.
Each well of the plate prepared in 2. was washed three times with 200 μl of PBS, and supplied with 150 μl of 3% BSA/PBS, followed by incubating at room temperature for 2 hrs. Each well was washed three times with 200 μl of PBS, and supplied with 50 μl of the above cell extract, followed by incubating at 4° C. overnight. After the incubation, each well was washed three times with 250 μl of a washing solution (0.1% BSA, 20 mM Tris-HCl (pH 7.6), 137 mM NaCl, and 0.05% Tween-20), and supplied with 70 μl of anti-HGFR antibody (h-Met(C-12), purchased from Santa Cruz, Production No. sc-10) 2,000-fold diluted with a reaction solution (1% BSA, 20 mM Tris-HCl (pH 7.6), 137 mM NaCl and 0.05% Tween-20), followed by incubating at room temperature for 1 hr. The well was washed three times with 250 μl of the washing solution, and supplied with 70 μl of peroxidase-labelled anti-rabbit IgG antibody (purchased from Cell Signaling, Production No. 7074) 2,000-fold diluted with the reaction solution, followed by incubating at room temperature for 1 hr. […] Each well was supplied with 70 μl of 1 M phosphoric acid, and using the Plate Reader MTP-500 (Corona Electric), the absorbance of the well was instantly determined at a measurement wavelength of 450 nm. While defining the absorbance of a well supplied with the cell extract having no test substance as 100% HGFR autophosphorylation activity, and the absorbance of a well supplied with 50 μl of the lysis buffer as 0% HGFR autophosphorylation activity, the HGFR autophosphorylation activity (%) was calculated for each well.
Target sequence in this assay (P08581 25-1390): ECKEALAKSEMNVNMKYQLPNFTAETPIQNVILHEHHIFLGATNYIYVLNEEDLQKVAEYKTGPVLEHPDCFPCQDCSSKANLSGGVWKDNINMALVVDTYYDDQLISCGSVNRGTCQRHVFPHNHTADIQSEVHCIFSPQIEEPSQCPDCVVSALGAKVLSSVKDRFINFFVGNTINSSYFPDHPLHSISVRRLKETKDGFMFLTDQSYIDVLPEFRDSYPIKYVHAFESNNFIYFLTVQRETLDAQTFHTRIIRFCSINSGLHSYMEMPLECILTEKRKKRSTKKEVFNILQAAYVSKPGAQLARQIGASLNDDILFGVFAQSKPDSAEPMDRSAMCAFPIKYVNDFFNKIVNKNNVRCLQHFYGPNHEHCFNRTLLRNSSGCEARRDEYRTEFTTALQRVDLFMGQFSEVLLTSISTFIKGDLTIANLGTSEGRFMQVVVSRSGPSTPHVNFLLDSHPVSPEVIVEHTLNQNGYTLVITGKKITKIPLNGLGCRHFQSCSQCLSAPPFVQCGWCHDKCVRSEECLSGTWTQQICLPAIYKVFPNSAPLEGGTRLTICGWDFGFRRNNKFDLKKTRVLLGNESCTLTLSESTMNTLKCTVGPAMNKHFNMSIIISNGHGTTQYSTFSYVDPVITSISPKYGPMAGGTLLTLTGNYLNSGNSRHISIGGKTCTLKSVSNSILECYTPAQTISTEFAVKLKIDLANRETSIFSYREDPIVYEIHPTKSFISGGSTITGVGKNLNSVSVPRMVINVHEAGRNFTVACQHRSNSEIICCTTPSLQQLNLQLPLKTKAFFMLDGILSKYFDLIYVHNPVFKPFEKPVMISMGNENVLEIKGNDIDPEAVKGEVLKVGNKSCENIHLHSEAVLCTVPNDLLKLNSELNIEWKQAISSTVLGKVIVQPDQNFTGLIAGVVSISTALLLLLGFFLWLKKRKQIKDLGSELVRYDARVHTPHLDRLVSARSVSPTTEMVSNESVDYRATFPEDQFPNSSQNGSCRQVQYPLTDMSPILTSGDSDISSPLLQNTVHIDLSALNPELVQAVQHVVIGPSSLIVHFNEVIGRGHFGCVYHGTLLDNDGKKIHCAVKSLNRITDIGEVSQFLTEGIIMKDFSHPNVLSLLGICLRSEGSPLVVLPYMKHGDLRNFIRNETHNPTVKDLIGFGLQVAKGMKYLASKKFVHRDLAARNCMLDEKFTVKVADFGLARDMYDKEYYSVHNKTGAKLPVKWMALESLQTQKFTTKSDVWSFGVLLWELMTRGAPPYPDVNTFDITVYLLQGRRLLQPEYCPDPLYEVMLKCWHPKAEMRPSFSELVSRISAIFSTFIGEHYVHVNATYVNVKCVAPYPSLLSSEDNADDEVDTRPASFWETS

Structure (SMILES) | pIC50 [1] | pIC50 (HGFR [2]) | pIC50 (HGFR [3])
CN1CCN(C2CCN(C(=O)Nc3cc(Oc4ccc(NC(=O)C5(C(=O)Nc6ccc(F)cc6)CC5)c(F)c4)ccn3)CC2)CC1 [Example 9, N-(2-Fluoro-4-{[2-({[4-(4-methylpiperazin-1-yl)piperidin-1-yl]carbonyl}amino)pyridin-4-yl]oxy}phenyl)-N′-(4-fluorophenyl)cyclopropane-1,1-dicarboxamide] | 7.77 |  | 
O=C(Nc1cc(Oc2cc(F)c(NC(=O)C3(C(=O)Nc4ccc(F)cc4)CC3)cc2F)ccn1)N1CC(O)C1 [Example 16, N-{2,5-Difluoro-4-[(2-{[(3-hydroxyazetidin-1-yl)carbonyl]amino}pyridin-4-yl)oxy]phenyl}-N′-(4-fluorophenyl)cyclopropane-1,1-dicarboxamide] | 8.30 | 8.40 | 8.08
CN1CCC(N(C)C(=O)Nc2cc(Oc3cc(F)c(NC(=O)C4(C(=O)Nc5ccc(F)cc5)CC4)cc3F)ccn2)CC1 [Example 19] | 8.31 | 7.31 | 7.96
O=C(Nc1cc(Oc2cc(F)c(NC(=O)C3(C(=O)Nc4ccc(F)cc4)CC3)cc2F)ccn1)N1CC[C@H](O)C1 [Example 22, N-{2,5-Difluoro-4-[(2-{[((S)-3-hydroxypyrrolidin-1-yl)carbonyl]amino}pyridin-4-yl)oxy]phenyl}-N′-(4-fluorophenyl)cyclopropane-1,1-dicarboxamide] | 8.62 | 7.80 | 8.35
O=C(Nc1cc(Oc2cc(F)c(NC(=O)C3(C(=O)Nc4ccc(F)cc4)CC3)cc2F)ccn1)N1CC[C@@H](O)C1 [Example 25, N-{2,5-Difluoro-4-[(2-{[((R)-3-hydroxypyrrolidin-1-yl)carbonyl]amino}pyridin-4-yl)oxy]phenyl}-N′-(4-fluorophenyl)cyclopropane-1,1-dicarboxamide] | 8.66 | 8.00 | 8.47
